Reference: US4055639A, “Derivatives of N-(2,2-dichlorovinyl) salicylamide and use thereof as bactericides, fungicides and algicides for industry” (Nippon Kayaku Kabushiki Kaisha, priority 1975, dated 1977)
≈ marks a conversion by molar mass, not a printed value. Where a name gives a salt, the structure may show the parent alone. Read-outs that look alike come from different tables or passages of the source.

Experiments:
Aspergillus niger = assay: minimum inhibitory concentration, potato-dextrose agar dilution method; format: cell-based; conditions: read-out: Minimum inhibitory amount (minimum inhibitory concentration, 100% control)
Source text: (§1) Bactericidal activity and fungicidal activity of the active compounds of the present invention were examined by potato-dextrose agar dilution method, or [2] glucose bouillon medium dilution method. The results are shown in Table 2 below as the minimum inhibitory concentration (the minimum concentration of active compound found to produce 100% control of the test bacteria and fungi).

Cladosporium harbarum = assay: as above; format: cell-based; conditions: read-out: Minimum inhibitory amount (minimum inhibitory concentration, 100% control)
Source text: as §1

Penicillium citrinum = assay: as above; format: cell-based; conditions: read-out: Minimum inhibitory amount (minimum inhibitory concentration, 100% control)
Source text: as §1

Bacillus subtilis = assay: minimum inhibitory concentration, glucose bouillon medium dilution method; format: cell-based; conditions: read-out: Minimum inhibitory amount (minimum inhibitory concentration, 100% control)
Source text: as §1

Escherichia coli = assay: as above; format: cell-based; conditions: read-out: Minimum inhibitory amount (minimum inhibitory concentration, 100% control)
Source text: as §1

Staphylococcus aureus = assay: as above; format: cell-based; conditions: read-out: Minimum inhibitory amount (minimum inhibitory concentration, 100% control)
Source text: as §1

fungi = assay: degree of propagation on slime test boards in Waxman's liquid medium; design: key: -: no propagation; +: the area of propagation is 1-25% on the slime test boards.; ++: the area of propagation is 26-50% on the slime test boards.; +++: the area of propagation is 51-75% on the slime test boards.; ++++: the area of propagation is 76-100% on the slime test boards; conditions: 0.02 part active compound (10% water soluble concentrate) in 100 parts medium, same method
Method: (§2) Zero point zero two (0.02) part of active compounds in the form of 10% water soluble concentrate which was prepared by Example 11 was added into 100 parts of Waxman's liquid medium. Pieces of wood and iron (hereafter referred to as the slime test boards) were soaked into the Waxman's liquid medium. The bacteria which were gathered from circular water system were inoculated upon the Waxman's liquid medim and incubated at 27°-34° C by shaking culture for 2 days. The degree of propagation of the bacteria on the slime test boards was examined.
(§3) The growth-inhibiting activity of active compounds against the fungi and the green algae was also examined by the same method as mentioned above.
(§4) The degree of propagation of the bacteria, fungi or green algae on the slime test boards is difined in term of the following symbols.

green algae = assay: as above; design: key: -: no propagation; +: the area of propagation is 1-25% on the slime test boards.; ++: the area of propagation is 26-50% on the slime test boards.; +++: the area of propagation is 51-75% on the slime test boards.; ++++: the area of propagation is 76-100% on the slime test boards; conditions: 0.02 part active compound (10% water soluble concentrate) in 100 parts medium, same method
Method: as §2, §3, §4

[1] = tested on: Bacteria, fungi and slime; assay: inhibition of bacteria, fungi and slime by water soluble concentrate in circular water systems, pastes or binding agents; conditions: 10-20 ppm in circular water systems; 0.01-0.1% in pastes or binding agents
Method: A water soluble concentrate was prepared as follows:
The above ingredients were mixed. A water soluble concentrate was obtained. A water soluble concentrate containing Compound No. 1, No. 2, No. 5, No. 8, No. 16, No. 19 or No. 22 was prepared by the same method as mentioned above.
Before application, the concentrate was diluted 500-1000 times with water and sprayed on the inside of cotes to prevent the growth of bacteria and fungi.
The solution was added to water in circular water systems to inhibit the growth of slime. The concentration of Compound No. 6 in the water was 10-20 ppm.
An amount of 0.01-0.1% of Compound No. 6 as the solution was added to pastes or binding agents to prevent rottenness of them.

[2] = Method (1) potato-dextrose agar dilution
[3] = Cladosporium harbarum, Method (1) potato-dextrose agar dilution
[4] = Method (2) glucose bouillon medium dilution

O=C(NC=C(Cl)Cl)c1cc(Br)ccc1O [compound 13]
MIC (Aspergillus niger; [2]): 20 µg/mL (≈ 64.3 µM)
MIC (Cladosporium harbarum; [3]): 10 µg/mL (≈ 32.2 µM)
MIC (Penicillium citrinum; [2]): 10 µg/mL (≈ 32.2 µM)
MIC (Bacillus subtilis; [4]): 5 µg/mL (≈ 16.1 µM)
MIC (Escherichia coli; [4]): 60 µg/mL (≈ 193 µM)
MIC (Staphylococcus aureus; [4]): 5 µg/mL (≈ 16.1 µM)

COc1ccccc1C(=O)NC=C(Cl)Cl [compound 24]
MIC (Aspergillus niger; [2]): 20 µg/mL (≈ 81.3 µM)
MIC (Cladosporium harbarum; [3]): 10 µg/mL (≈ 40.6 µM)
MIC (Penicillium citrinum; [2]): 20 µg/mL (≈ 81.3 µM)
MIC (Bacillus subtilis; [4]): 10 µg/mL (≈ 40.6 µM)
MIC (Escherichia coli; [4]): 60 µg/mL (≈ 244 µM)
MIC (Staphylococcus aureus; [4]): 10 µg/mL (≈ 40.6 µM)

CCC(=O)Oc1ccccc1C(=O)NC=C(Cl)Cl [Compound No. 15]
MIC (Aspergillus niger; [2]): 10 µg/mL (≈ 34.7 µM)
MIC (Cladosporium harbarum; [3]): 5 µg/mL (≈ 17.4 µM)
MIC (Penicillium citrinum; [2]): 10 µg/mL (≈ 34.7 µM)
MIC (Bacillus subtilis; [4]): 2.5 µg/mL (≈ 8.68 µM)
MIC (Escherichia coli; [4]): 40 µg/mL (≈ 139 µM)
MIC (Staphylococcus aureus; [4]): 5 µg/mL (≈ 17.4 µM)
Degree of propagation (fungi): -
Degree of propagation (green algae): -

COC(=O)Oc1ccccc1C(=O)NC=C(Cl)Cl [Compound No. 3, O-methoxycarbonyl-N-(2,2-dichlorovinyl) salicylamide]
MIC (Aspergillus niger; [2]): 10 µg/mL (≈ 34.5 µM)
MIC (Cladosporium harbarum; [3]): 10 µg/mL (≈ 34.5 µM)
MIC (Penicillium citrinum; [2]): 20 µg/mL (≈ 68.9 µM)
MIC (Bacillus subtilis; [4]): 10 µg/mL (≈ 34.5 µM)
MIC (Escherichia coli; [4]): 60 µg/mL (≈ 207 µM)
MIC (Staphylococcus aureus; [4]): 10 µg/mL (≈ 34.5 µM)

O=C(NC=C(Cl)Cl)c1ccccc1OC(=O)C(Cl)Cl [compound 20]
MIC (Aspergillus niger; [2]): 10 µg/mL (≈ 29.2 µM)
MIC (Cladosporium harbarum; [3]): 10 µg/mL (≈ 29.2 µM)
MIC (Penicillium citrinum; [2]): 10 µg/mL (≈ 29.2 µM)
MIC (Bacillus subtilis; [4]): 5 µg/mL (≈ 14.6 µM)
MIC (Escherichia coli; [4]): 60 µg/mL (≈ 175 µM)
MIC (Staphylococcus aureus; [4]): 10 µg/mL (≈ 29.2 µM)

CC(=O)Oc1ccc(Cl)cc1C(=O)NC=C(Cl)Cl [Compound No. 5, O-acetyl-N-(2',2'-dichlorovinyl)-5-chlorosalicylamide]
MIC (Aspergillus niger; [2]): 2.5 µg/mL (≈ 8.1 µM)
MIC (Cladosporium harbarum; [3]): 2.5 µg/mL (≈ 8.1 µM)
MIC (Penicillium citrinum; [2]): 2.5 µg/mL (≈ 8.1 µM)
MIC (Bacillus subtilis; [4]): 1.3 µg/mL (≈ 4.21 µM)
MIC (Escherichia coli; [4]): 10 µg/mL (≈ 32.4 µM)
MIC (Staphylococcus aureus; [4]): 1.3 µg/mL (≈ 4.21 µM)
Degree of propagation (fungi): -
Degree of propagation (green algae): -

CCOC(=O)Oc1ccccc1C(=O)NC=C(Cl)Cl [compound 22]
MIC (Aspergillus niger; [2]): 10 µg/mL (≈ 32.9 µM)
MIC (Cladosporium harbarum; [3]): 10 µg/mL (≈ 32.9 µM)
MIC (Penicillium citrinum; [2]): 10 µg/mL (≈ 32.9 µM)
MIC (Bacillus subtilis; [4]): 5 µg/mL (≈ 16.4 µM)
MIC (Escherichia coli; [4]): 40 µg/mL (≈ 132 µM)
MIC (Staphylococcus aureus; [4]): 2.5 µg/mL (≈ 8.22 µM)
Degree of propagation (fungi): + (the area of propagation is 1-25% on the slime test boards.)

O=C(CCl)Oc1ccccc1C(=O)NC=C(Cl)Cl [compound 19]
MIC (Aspergillus niger; [2]): 10 µg/mL (≈ 32.4 µM)
MIC (Cladosporium harbarum; [3]): 5 µg/mL (≈ 16.2 µM)
MIC (Penicillium citrinum; [2]): 10 µg/mL (≈ 32.4 µM)
MIC (Bacillus subtilis; [4]): 5 µg/mL (≈ 16.2 µM)
MIC (Escherichia coli; [4]): 40 µg/mL (≈ 130 µM)
MIC (Staphylococcus aureus; [4]): 5 µg/mL (≈ 16.2 µM)
Degree of propagation (fungi): -
Degree of propagation (green algae): -

O=C(NC=C(Cl)Cl)c1cc(Cl)cc(Cl)c1O [compound 26]
MIC (Aspergillus niger; [2]): 10 µg/mL (≈ 33.2 µM)
MIC (Cladosporium harbarum; [3]): 5 µg/mL (≈ 16.6 µM)
MIC (Penicillium citrinum; [2]): 10 µg/mL (≈ 33.2 µM)
MIC (Bacillus subtilis; [4]): 5 µg/mL (≈ 16.6 µM)
MIC (Escherichia coli; [4]): 40 µg/mL (≈ 133 µM)
MIC (Staphylococcus aureus; [4]): 5 µg/mL (≈ 16.6 µM)

CNC(=O)Oc1ccccc1C(=O)NC=C(Cl)Cl [Compound No. 4, O-(N'-methylcarbamoyl)-N-(2,2-dichlorovinyl) salicylamide]
MIC (Aspergillus niger): 20 µg/mL (≈ 69.2 µM)
MIC (Cladosporium harbarum; Cladosporium): 5 µg/mL (≈ 17.3 µM)
MIC (Penicillium citrinum): 10 µg/mL (≈ 34.6 µM)
MIC (Bacillus subtilis): 10 µg/mL (≈ 34.6 µM)
MIC (Escherichia coli): 60 µg/mL (≈ 208 µM)
MIC (Staphylococcus aureus): 10 µg/mL (≈ 34.6 µM)

CC(C)COC(=O)Oc1ccccc1C(=O)NC=C(Cl)Cl [compound 23]
MIC (Aspergillus niger; [2]): 10 µg/mL (≈ 30.1 µM)
MIC (Cladosporium harbarum; [3]): 10 µg/mL (≈ 30.1 µM)
MIC (Penicillium citrinum; [2]): 10 µg/mL (≈ 30.1 µM)
MIC (Bacillus subtilis; [4]): 5 µg/mL (≈ 15.1 µM)
MIC (Escherichia coli; [4]): 40 µg/mL (≈ 120 µM)
MIC (Staphylococcus aureus; [4]): 5 µg/mL (≈ 15.1 µM)

O=C(NC=C(Cl)Cl)c1cccc([N+](=O)[O-])c1O [compound 14]
MIC (Aspergillus niger; [2]): 10 µg/mL (≈ 36.1 µM)
MIC (Cladosporium harbarum; [3]): 10 µg/mL (≈ 36.1 µM)
MIC (Penicillium citrinum; [2]): 10 µg/mL (≈ 36.1 µM)
MIC (Bacillus subtilis; [4]): 5 µg/mL (≈ 18 µM)
MIC (Escherichia coli; [4]): 60 µg/mL (≈ 217 µM)
MIC (Staphylococcus aureus; [4]): 5 µg/mL (≈ 18 µM)

CC(C)C(=O)Oc1ccccc1C(=O)NC=C(Cl)Cl [compound 17]
MIC (Aspergillus niger; [2]): 10 µg/mL (≈ 33.1 µM)
MIC (Cladosporium harbarum; [3]): 10 µg/mL (≈ 33.1 µM)
MIC (Penicillium citrinum; [2]): 10 µg/mL (≈ 33.1 µM)
MIC (Bacillus subtilis; [4]): 5 µg/mL (≈ 16.5 µM)
MIC (Escherichia coli; [4]): 40 µg/mL (≈ 132 µM)
MIC (Staphylococcus aureus; [4]): 5 µg/mL (≈ 16.5 µM)

CC(=O)Oc1c(Cl)cc(Cl)cc1C(=O)NC=C(Cl)Cl [compound 27]
MIC (Aspergillus niger; [2]): 10 µg/mL (≈ 29.2 µM)
MIC (Cladosporium harbarum; [3]): 5 µg/mL (≈ 14.6 µM)
MIC (Penicillium citrinum; [2]): 5 µg/mL (≈ 14.6 µM)
MIC (Bacillus subtilis; [4]): 2.5 µg/mL (≈ 7.29 µM)
MIC (Escherichia coli; [4]): 40 µg/mL (≈ 117 µM)
MIC (Staphylococcus aureus; [4]): 2.5 µg/mL (≈ 7.29 µM)

O=C(NC=C(Cl)Cl)c1cc(Cl)ccc1O [Compound No. 1, N-(2',2'-dichlorovinyl)-5-chlorosalicylamide]
MIC (Aspergillus niger; [2]): 10 µg/mL (≈ 37.5 µM)
MIC (Cladosporium harbarum; [3]): 5 µg/mL (≈ 18.8 µM)
MIC (Penicillium citrinum; [2]): 10 µg/mL (≈ 37.5 µM)
MIC (Bacillus subtilis; [4]): 5 µg/mL (≈ 18.8 µM)
MIC (Escherichia coli; [4]): 60 µg/mL (≈ 225 µM)
MIC (Staphylococcus aureus; [4]): 5 µg/mL (≈ 18.8 µM)
Degree of propagation (fungi): -
Degree of propagation (green algae): -

CC(=O)Oc1ccccc1C(=O)NC=C(Cl)Cl [Compound No. 2, O-acetyl-N-(2,2-dichlorovinyl) salicylamide]
MIC (Aspergillus niger; [2]): 10 µg/mL (≈ 36.5 µM)
MIC (Cladosporium harbarum; [3]): 5 µg/mL (≈ 18.2 µM)
MIC (Penicillium citrinum; [2]): 10 µg/mL (≈ 36.5 µM)
MIC (Bacillus subtilis; [4]): 2.5 µg/mL (≈ 9.12 µM)
MIC (Escherichia coli; [4]): 40 µg/mL (≈ 146 µM)
MIC (Staphylococcus aureus; [4]): 5 µg/mL (≈ 18.2 µM)
Degree of propagation (fungi): -
Degree of propagation (green algae): -

Cc1cccc(C(=O)NC=C(Cl)Cl)c1O [compound 12]
MIC (Aspergillus niger; [2]): 20 µg/mL (≈ 81.3 µM)
MIC (Cladosporium harbarum; [3]): 20 µg/mL (≈ 81.3 µM)
MIC (Penicillium citrinum; [2]): 20 µg/mL (≈ 81.3 µM)
MIC (Bacillus subtilis; [4]): 10 µg/mL (≈ 40.6 µM)
MIC (Escherichia coli; [4]): 80 µg/mL (≈ 325 µM)
MIC (Staphylococcus aureus; [4]): 10 µg/mL (≈ 40.6 µM)

O=C(NC=C(Cl)Cl)c1cc(Cl)ccc1O [Compound No. 6, sodium salt of N-(2',2'-dichlorovinyl)-5-chlorosalicylamide]
inhibition of bacteria, fungi and slime [1]: inhibited for a long time

CCCC(=O)Oc1ccccc1C(=O)NC=C(Cl)Cl [compound 16]
MIC (Aspergillus niger; [2]): 10 µg/mL (≈ 33.1 µM)
MIC (Cladosporium harbarum; [3]): 5 µg/mL (≈ 16.5 µM)
MIC (Penicillium citrinum; [2]): 10 µg/mL (≈ 33.1 µM)
MIC (Bacillus subtilis; [4]): 5 µg/mL (≈ 16.5 µM)
MIC (Escherichia coli; [4]): 60 µg/mL (≈ 199 µM)
MIC (Staphylococcus aureus; [4]): 10 µg/mL (≈ 33.1 µM)
Degree of propagation (fungi): -
